{
  "source": "patent US20220089662A1",
  "about": "“PREPRATION METHOD AND APPLICATION OF ANTI-INFLAMMATORY KIDNEY PROTECTING CLAM PEPTIDE” (Chenland Nutritionals Inc., priority 2020, published 2022)",
  "key": {"[1]": {"test_system": "spontaneously hypertensive rats (SHR)", "assay": "Anti-inflammatory test after administration in spontaneously hypertensive rats (serum IL-8, TNF-α, hs-CRP)", "type": "in vivo, rat", "experimental": "Anti-inflammatory test after administration in spontaneously hypertensive rats is as follows.\n(§1) Spontaneously hypertensive rats were purchased from Beijing Weitong Lihua Experimental Animal Technology Co., Ltd.\n(§2) Forty male spontaneously hypertensive rats (SHR), aged about 12 weeks and weighing about 270 G, were adaptively fed for one week. […] The rats in the AC group were given captopril 10 mg/kg by gavage, at the same time, the MC group was given the same volume of distilled water. The drug was administered once a day for 4 weeks. Serum IL-8, TNF-α and hs-CRP were measured, and the data were analyzed by SPSS software."}, "[2]": {"test_system": "spontaneously hypertensive rats (SHR)", "assay": "Protection of renal function in spontaneously hypertensive rats (SCr, SUA, BUN)", "type": "in vivo, rat", "conditions": "SHR serum, AC: captopril 10 mg/kg by gavage once a day for 4 weeks", "experimental": "as §1\nas §2, with “gavage, At” for “gavage, at”, “weeks. SCr, SUA” for “weeks. Serum IL-8, TNF-α”, “and BUN” for “and hs-CRP”"}, "[3]": {"conditions": "AC: captopril 10 mg/kg by gavage once a day for 4 weeks"}},
  "data": [
    {"smiles": "C[C@H](CS)C(=O)N1CCC[C@H]1C(=O)O", "note": "[captopril]", "values": [
      {"measurement": "TNF-α", "setting": "[1]; [3]", "value": "87.41 ± 19.19", "unit": "pg/mL"},
      {"measurement": "hs-CRP", "setting": "[1]; [3]", "value": "1.53 ± 0.41", "unit": "µg/L"},
      {"measurement": "serum IL-8 level", "setting": "[1]; positive drug group (captopril 10 mg/kg), 4 weeks", "value": "122 ± 12.15", "unit": "pg/mL"},
      {"measurement": "BUN", "setting": "[2]", "value": "10.56 ± 3.17", "unit": "mmol/L"},
      {"measurement": "SCr", "setting": "[2]", "value": "421.50 ± 101.20", "unit": "µmol/L"},
      {"measurement": "SUA", "setting": "[2]", "value": "211.60 ± 39.89", "unit": "mg/L"}
    ]}
  ]
}
